Results reported in US20150344466A1 (SUMITOMO CHEMICAL COMPANY, LIMITED, priority 2013, published 2015).

Tests used:
Format in all cases: in vivo
[1] = tested on: Culex pipiens pallens; assay: Knockdown spray test on adult Culex pipiens pallens (Test Example 4); settings: topical, 0.25 h, active ingredient 0.1% w/v, 0.5 ml sprayed, within 15 minutes, read-out: knockdown rate of the test insects within 15 minutes
In short: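 Knockdown counts were taken 2, 5 and 15 min after spraying and expressed as percent of the 10 adults tested. For the spray, 0.5 ml of solution was applied by spray gun (0.4 kg/cm^2) from 30 cm above a gauze-covered cup in a test chamber; the cup was taken out right after spraying.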

[2] = tested on: Musca domestica; assay: Knockdown spray test on adult Musca domestica (Test Example 3); settings: topical, 0.25 h, active ingredient 2.0% w/v, 0.5 ml sprayed, within 15 minutes, read-out: knockdown rate of the test insects within 15 minutes
Experimental: Ten adult Musca domestica (five males and five females) were released in a polyethylene cup (bottom diameter: 10.6 cm), and the cup was covered with a 16-mesh nylon gauze. The polyethylene cup was placed on the bottom of a test chamber (bottom: 46 cm×46 cm, height: 70 cm). From a height of 30 cm above the upper surface of the polyethylene cup, 0.5 ml of the test drug solution was sprayed using a spray gun (a spraying pressure of 0.9 kg/cm^2). Immediately after spraying, the cup was taken out from the test chamber, and after 2 minutes, 5 minutes and 15 minutes, the number of knocked-down insects was counted to obtain a knockdown rate. The knockdown rate was calculated by the following equation.
(§1) Knockdown Rate (%)=(Number of Knocked-down Insects/Number of Tested Insects)×100

[3] = tested on: Culex pipiens pallens; assay: Larvicidal test on Culex pipiens pallens, eight days (Test Example 7); settings: 192 h; last-instar larvae of Culex pipiens pallens; 3.5 ppm in water; eight days later; read-out: death rate
Experimental: 20 last-instar larvae of Culex pipiens pallens were released into a liquid to which 0.7 ml of the above test drug solution was added to 100 ml of ion-exchanged water (a concentration of the active ingredient of 3.5 ppm). Eight days later, the life and death of the Culex pipiens pallens was examined, and the death rate was calculated. The death rate was calculated by the following equation.
Death rate (%)=(Number of dead insects/Number of tested insects)×100

[4] = tested on: Blattella germanica; assay: Knockdown spray test on Blattella germanica, 2.0% w/v oil formulation (Test Example 1); settings: topical, 0.25 h, active ingredient 2.0% w/v, 1.5 ml sprayed, within 15 minutes, read-out: knockdown rate of the test insects within 15 minutes
Experimental: Ten Blattella germanica (5 males and 5 females) were released in a test container (8.75 cm in diameter, 7.5 cm in height, and the bottom made of 16 mesh metallic wire) with the inner wall on which butter was applied, and the container was placed on the bottom of a test chamber (bottom: 46 cm×46 cm, height: 70 cm). From a height of 60 cm above the upper surface of the container, 1.5 ml of the test drug solution was sprayed using a spray gun (a spraying pressure of 0.42 kg/cm^2). Thirty seconds after spraying, the container was taken out from the test chamber, and after 2 minutes, 5 minutes and 15 minutes, the number of knocked-down insects was counted to obtain a knockdown rate. The knockdown rate was calculated by the following equation.
as §1

[5] = tested on: Plutella xylostella; assay: Foliar spray test on Plutella xylostella on cabbage (Test Example 10); settings: 120 h, third instar larvae of Plutella xylostella on cabbage, 500 ppm spray 20 ml/cup, after five days, read-out: controlling value
Experimental: On the other hand, cabbage was planted in a polyethylene cup, and grown until the third-fourth true leaf was spread. The test spray solution was sprayed to the cabbage at a ratio of 20 ml/cup. After the drug solution sprayed on the cabbage was dried, 10 third instar larvae of Plutella xylostella were allowed to parasitize the cabbage. After five days, the number of Plutella xylostella was investigated, and the controlling value was calculated according to the following standard. Controlling value (%)={1−(Cb×Tai)/(Cai×Tb)}×100 In the equation, the symbols represent as follows. Cb: the number of insects in a non-treated section before treatment Cai: the number of insects in a non-treated section on observation Tb: the number of insects in a treated section before treatment Tai: the number of insects in a treated section on observation

[6] = tested on: Blattella germanica; assay: Knockdown spray test on Blattella germanica, 0.1% w/v oil formulation (Test Example 2); settings: topical, 0.25 h, active ingredient 0.1% w/v, 1.5 ml sprayed, within 15 minutes, read-out: knockdown rate of the test insects within 15 minutes
In short: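 Ten German cockroaches (5 males, 5 females) in a mesh-bottomed, butter-walled container were sprayed with 1.5 ml test solution from 60 cm at 0.42 kg/cm^2 inside a chamber.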

[7] = tested on: Spodoptera litura; assay: Foliar spray test on Spodoptera litura on cabbage (Test Example 11); settings: 96 h, fourth instar larvae of Spodoptera litura on cabbage, 500 ppm spray 20 ml/cup, after 4 days, read-out: controlling value
Experimental: On the other hand, cabbage was planted in a polyethylene cup, and grown until the third-fourth true leaf was spread. The test spray solution was sprayed to the cabbage at a ratio of 20 ml/cup. After the drug solution sprayed orn the cabbage was dried, 10 fourth instar larvae of Spodoptera litura were allowed to parasitize the cabbage. After 4 days, the number of surviving Spodoptera litura on the cabbage leaves was examined, and the controlling value was calculated according to the following equation. Controlling value (%)={1−(Cb×Tai)/([…])}×100 In the equation, the symbols represent as follows. Cb: the number of insects in a non-treated section before treatment Cai: the number of insects in a non-treated section on observation Tb: the number of insects in a treated section before treatment Tai: the number of insects in a treated section on observation

[8] = tested on: Musca domestica; assay: Filter paper/sucrose bait death rate test on Musca domestica (Test Example 5); settings: female imagoes of Musca domestica, 0.7 ml on filter paper, after 24 hours
In short: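 Ten female imagoes were confined in a sealed cup over a filter paper treated with 0.7 ml of test solution and 30 mg sucrose bait. Mortality was scored at 24 h and expressed as percent of tested insects killed.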

Work on `O=C(NCC1CCOCC1)c1cc(COCc2ccc3ccccc3c2)on1` [(21), N-(tetrahydropyran-4-ylmethyl)-5-(2-naphthylmethoxymethyl)isoxazole-3-carboxamide] yielded a pest or weed control at 0.1 % strength [1] of no less than 80%, a pest or weed control at 2 % strength [2] of no less than 80% and a pest or weed control at 3.5 ppm [3] of no less than 90%. The pest or weed control at 2 % strength [4] was no less than 80%.
`O=C(NCC1CCOC1)c1cc(COCc2ccc(Cl)cc2)on1` (stereo not shown) [(70), N-(tetrahydrofuran-3-ylmethyl)-5-(4-chlorobenzyloxymethyl)isoxazole-3-carboxamide] was tested, and the pest or weed control at 500 ppm [5] was no less than 90%, the pest or weed control at 0.1 % strength [6] was no less than 80% and the pest or weed control at 0.1 % strength [1] was no less than 80%. It also gave a pest or weed control at 3.5 ppm [3] of no less than 90%.
Compound `O=C(NCC1CCOC1)c1cc(COCc2cccc(OC(F)(F)F)c2)on1` (stereo not shown) [(78), N-(tetrahydrofuran-3-ylmethyl)-5-(3-trifluoromethoxybenzyloxymethyl)isoxazole-3-carboxamide] has a pest or weed control at 0.1 % strength [6] of no less than 80%, a pest or weed control at 0.1 % strength [1] of no less than 80% and a pest or weed control at 3.5 ppm [3] of no less than 90%.
With `O=C(NCC1CCOC1)c1cc(COCc2ccc(Br)cc2)on1` (stereo not shown) [(91), N-(tetrahydrofuran-3-ylmethyl)-5-(4-bromobenzyloxymethyl)isoxazole-3-carboxamide] the pest or weed control at 500 ppm [5] was no less than 90%, the pest or weed control at 0.1 % strength [6] was no less than 80% and the pest or weed control at 0.1 % strength [1] was no less than 80%. For the same compound, the pest or weed control at 3.5 ppm [3] was no less than 90%.
Compound `O=C(NCC1CCOCC1)c1cc(COCc2ccc(SC(F)(F)F)cc2)on1` [(96), N-(tetrahydropyran-4-ylmethyl)-5-(4-trifluoromethylthiobenzyloxymethyl)isoxazole-3-carboxamide] has a pest or weed control at 0.1 % strength [1] of no less than 80% and a pest or weed control at 3.5 ppm [3] of no less than 90%.
In the case of `O=C(NCC1CCOC1)c1cc(COCc2cc3ccccc3s2)on1` (stereo not shown) [(112), N-(tetrahydrofuran-3-ylmethyl)-5-(benzothiophen-2-ylmethoxymethyl)isoxazole-3-carboxamide], the pest or weed control at 500 ppm [7] is reported as no less than 80%, the pest or weed control at 0.1 % strength [6] is reported as no less than 80% and the pest or weed control at 0.1 % strength [1] is reported as no less than 80%.
Compound `O=C(NCC1CCOC1)c1cc(COCC2CCc3ccccc3C2)on1` (stereo not shown) [(118), N-(tetrahydrofuran-3-ylmethyl)-5-(1,2,3,4-tetrahydronaphthalen-2-ylmethoxymethyl)isoxazole-3-carboxamide] has a pest or weed control at 500 ppm [5] of no less than 90%, a pest or weed control at 0.1 % strength [1] of no less than 80% and a pest or weed control at 2 % strength [2] of no less than 80%. The pest or weed control at 2 % strength [4] was no less than 80%.
With `O=C(NCC1CCOC1)c1cc(CCCCOc2ccccc2)on1` (stereo not shown) [(146), N-(tetrahydrofuran-3-ylmethyl)-5-(4-phenoxybutyl)isoxazole-3-carboxamide] the pest or weed control at 0.1 % strength [1] was no less than 80%, the pest or weed control at 2 % strength [2] was no less than 80% and the pest or weed control at 3.5 ppm [3] was no less than 90%. For the same compound, the pest or weed control at 2 % strength [4] was no less than 80%.
For `COC(=O)c1c(C(=O)NCC2CCOC2)noc1COCc1ccccc1` (stereo not shown) [(167), N-(tetrahydrofuran-3-ylmethyl)-(5-benzyloxymethyl-4-methoxycarbonyl)isoxazole-3-carboxamide], the pest or weed control at 3.5 ppm [3] was no less than 90%.
In the case of `O=C(NCC1CCOC1)c1cc(COc2cccc(Br)c2)on1` (stereo not shown) [(196), N-(tetrahydrofuran-3-ylmethyl)-5-(3-bromophenoxymethyl)isoxazole-3-carboxamide], the pest or weed control at 500 ppm [7] is reported as no less than 80%, the pest or weed control at 0.1 % strength [6] is reported as no less than 80% and the pest or weed control at 0.1 % strength [1] is reported as no less than 80%.
With `O=C(NCC1CCOCC1)c1cc(COc2cccc(Br)c2)on1` [(197), N-(tetrahydropyran-4-ylmethyl)-5-(3-bromophenoxymethyl)isoxazole-3-carboxamide] the pest or weed control at 500 ppm [7] was no less than 80% and the pest or weed control at 0.1 % strength [1] was no less than 80%.
For `O=C(NCC1CCOCC1)c1cc(COc2cccc(C(F)(F)F)c2)on1` [(199), N-(tetrahydropyran-4-ylmethyl)-5-(3-trifluoromethylphenoxymethyl)isoxazole-3-carboxamide], the pest or weed control at 0.1 % strength [1] was no less than 80% and the pest or weed control at 3.5 ppm [3] was no less than 90%.
With `O=C(NCC1CCOC1)c1cc(CCCc2ccc(Cl)cc2)on1` (stereo not shown) [(252), N-(tetrahydrofuran-3-ylmethyl)-5-[3-(4-chlorophenyl]propyl) isoxazole-3-carboxamide] the pest or weed control at 0.1 % strength [6] was no less than 80%, the pest or weed control at 0.1 % strength [1] was no less than 80% and the pest or weed control at 3.5 ppm [3] was no less than 90%. It also gave a pest or weed control at 500 ppm [8] of no less than 90%.
`O=C(NCC1CCOC1)c1cc(COCc2ccc(Br)c(F)c2)on1` (stereo not shown) [(272), N-(tetrahydrofuran-3-ylmethyl)-5-(4-bromo-3-fluorobenzyloxymethyl)isoxazole-3-carboxamide] was tested, and the pest or weed control at 500 ppm [7] was no less than 80%, the pest or weed control at 500 ppm [5] was no less than 90% and the pest or weed control at 0.1 % strength [1] was no less than 80%.
`Cc1c(C(=O)NCC2CCOC2)noc1CCCc1ccccc1F` (stereo not shown) [(282), N-(tetrahydrofuran-3-ylmethyl)-4-methyl-5-[3-(2-fluorophenyl)propyl]isoxazole-3-carboxamide] was tested, and the pest or weed control at 0.1 % strength [6] was no less than 80%, the pest or weed control at 0.1 % strength [1] was no less than 80% and the pest or weed control at 3.5 ppm [3] was no less than 90%. For the same compound, the pest or weed control at 500 ppm [8] was no less than 90%.
`O=C(NCC1CCOC1)c1cc(Cc2cccc(F)c2)on1` (stereo not shown) [(318), N-(tetrahydrofuran-3-ylmethyl)-5-(3-fluorobenzyl)isoxazole-3-carboxamide] showed a pest or weed control at 500 ppm [7] of no less than 80%, a pest or weed control at 500 ppm [5] of no less than 90% and a pest or weed control at 0.1 % strength [6] of no less than 80%. For the same compound, the pest or weed control at 0.1 % strength [1] was no less than 80%.
`O=C(NCC1CCOC1)c1cc(Cc2cccc(Cl)c2)on1` (stereo not shown) [(321), N-(tetrahydrofuran-3-ylmethyl)-5-(3-chlorobenzyl)isoxazole-3-carboxamide] gave a pest or weed control at 500 ppm [7] of no less than 80%, a pest or weed control at 0.1 % strength [6] of no less than 80% and a pest or weed control at 0.1 % strength [1] of no less than 80%. It also gave a pest or weed control at 500 ppm [8] of no less than 90%.
`O=C(NCC1CCOC1)c1cc(Cc2ccc(Cl)c(Cl)c2)on1` (stereo not shown) [(325), N-(tetrahydrofuran-3-ylmethyl)-5-(3,4-dichlorobenzyl)isoxazole-3-carboxamide] was tested, and the pest or weed control at 500 ppm [7] was no less than 80%, the pest or weed control at 0.1 % strength [6] was no less than 80% and the pest or weed control at 0.1 % strength [1] was no less than 80%. It also gave a pest or weed control at 500 ppm [8] of no less than 90%.
Compound `CC1(CNC(=O)c2cc(CCCc3ccc4ccccc4c3)on2)COC1` [(332), N-(3-methyloxetan-3-ylmethyl)-5-[3-(2-naphthyl)propyl]isoxazole-3-carboxamide] has a pest or weed control at 0.1 % strength [6] of no less than 80%, a pest or weed control at 0.1 % strength [1] of no less than 80% and a pest or weed control at 2 % strength [2] of no less than 80%. The pest or weed control at 3.5 ppm [3] was no less than 90% and the pest or weed control at 2 % strength [4] was no less than 80%.
